Results taken from patent publication US4439614A, “5,6-Methano-5,6-dihydroretinoids” (SRI International, priority 1982, dated 1984).

Key:
Ornithine Decarboxylase [1] = conditions: prior-art epoxides; ODC induction in mouse epidermis by tumor-promoting phorbol esters; cited from earlier work
Ornithine Decarboxylase [2] = experiment: Inhibition of induction of ornithine decarboxylase (ODC assay) by 12-O-tetradecanoylphorbol-13-acetate in mouse skin; type: in vivo; conditions: topical, 1 hour before TPA (17 nmol), CD-1 mice
Experimental: (§1) The ODC assay measures a compound's effect on the prevention of the induction of ODC. The tracheal organ culture assay measures a compound's ability to reverse keratinization. For comparison purposes retinoic acid was also tested by these assays.
The ODC assay is carried out as follows. Female Charles River CD-1 mice from Charles River Breeding Laboratories, Wilmington, Mass., are used (age 7 to 9 weeks). The dorsal hair of the mice is shaved 1 to 2 days before testing, and only mice showing no hair regrowth are used. […] The mice are killed by cervical dislocation five hours after TPA treatment. Determinations are done in triplicate.
The epidermis is obtained from the sacrificed animals. To obtain sufficient material, the dorsal skins from 2 to 3 mice in each treatment group are pooled. The depilatory agent Nudit® (Helena Rubinstein, New York) is applied to the shaved area of the skin; after 5 minutes, it is washed off thoroughly with cold tap water. Then the skin is excised and plunged immediately into ice-cold water; it is then placed in a 55° C. water bath for 30 seconds and reimmersed in ice-cold water for at least another 30 seconds.
The supernatant fraction remaining after centrifugation of the homogenate at 10,000×g for 30 seconds at 0° C. is used for the enzyme assay. Enzyme activity is determined using the microassay for ODC as described by Verma and Boutwell to measure the release of ^14 CO2 from DL-[1-^14 C]-ornithine (58 mCi/mmol) after incubation with the 10,000×g supernatant. The incubations are carried out by decanting, with a Pasteur pipette, 100 μL of the supernatant containing 100 to 120 μg of protein into two or three 15-mL Corex tubes in a shaking water bath at 37° C.

[3] = tested on: Hamster Tracheal Organ Culture; experiment: Reversal of keratinization in hamster tracheal organ culture; type: cell-based
Experimental: as §1
The tracheal organ culture assay is carried out as follows. Tracheas are taken from hamsters that are in very early stages of vitamin A deficiency and placed in organ culture. At the time of culture, the animals are still gaining weight; the tracheal epithelium is generally low columnar or cuboidal, with only occasional patches of squamous metaplasia. […] All tracheas are grown in medium containing no retinoid for the first 3 days. […] Culture medium is changed three times a week, and all of the remaining tracheas are harvested at the end of 10 days in culture. Tracheas are fixed in 10% buffered formalin and embedded in paraffin.

## CC(/C=C/C12OC1(C)CCCC2(C)C)=C\C=C\C(C)=C\C(=O)O (stereo not drawn) [5,6-epoxy-5,6-dihydroretinoic acid]
Ornithine Decarboxylase [1]
  biological activity in the ornithine decarboxylase (ODC) assay: exhibited biological activity

## CCOC(=O)c1ccc(/C=C(C)/C=C/C23CC2(C)CCCC3(C)C)cc1 (stereo not drawn) [(E)-1-(4-carbethoxyphenyl)-2-methyl-4-(2,2,6-trimethylbicyclo[4.1.0]hept-1-yl)-1,3-butadiene]
Ornithine Decarboxylase [2]; dose 17 nmol
  % Inhibition of Control (inhibition of induction of ornithine decarboxylase by TPA in mouse skin): 80%
[3]; conc 10^-8 M
  Active Cultures (%) (reversal of keratinization): 100%
  Active/Total Cultures (reversal of keratinization): 7/7
[3]; conc 10^-9 M
  Active Cultures (%) (reversal of keratinization): 77%
  Active/Total Cultures (reversal of keratinization): 10/13
[3]; conc 10^-10 M
  Active Cultures (%) (reversal of keratinization): 29%
  Active/Total Cultures (reversal of keratinization): 4/14
[3]; conc 10^-11 M
  Active Cultures (%) (reversal of keratinization): 29%
  Active/Total Cultures (reversal of keratinization): 2/7

## CC1=C(/C=C/C(C)=C/C=C/C(C)=C/C(=O)O)C(C)(C)CCC1 [(E)-retinoic acid, reference compound]
Ornithine Decarboxylase [2]; dose 1.7 nmol
  % Inhibition of Control (inhibition of induction of ornithine decarboxylase by TPA in mouse skin): 87-91%
[3]; conc 10^-8 M
  Active Cultures (%) (reversal of keratinization): 100%
  Active/Total Cultures (reversal of keratinization): 236/236
[3]; conc 10^-9 M
  Active Cultures (%) (reversal of keratinization): 88%
  Active/Total Cultures (reversal of keratinization): 419/474
[3]; conc 10^-10 M
  Active Cultures (%) (reversal of keratinization): 52%
  Active/Total Cultures (reversal of keratinization): 134/256

## CCOC(=O)/C=C(C)/C=C/C=C(C)/C=C/C12CC1(C)CCCC2(C)C (stereo not drawn) [ethyl (E)-5,6-methano-5,6-dihydroretinoate]
Ornithine Decarboxylase [2]; dose 17 nmol
  % Inhibition of Control (inhibition of induction of ornithine decarboxylase by TPA in mouse skin): 70%
[3]; conc 10^-8 M
  Active Cultures (%) (reversal of keratinization): 100%
  Active/Total Cultures (reversal of keratinization): 7/7
[3]; conc 10^-9 M
  Active Cultures (%) (reversal of keratinization): 79%
  Active/Total Cultures (reversal of keratinization): 11/14
[3]; conc 10^-10 M
  Active Cultures (%) (reversal of keratinization): 50%
  Active/Total Cultures (reversal of keratinization): 7/14
[3]; conc 10^-11 M
  Active Cultures (%) (reversal of keratinization): 29%
  Active/Total Cultures (reversal of keratinization): 2/7

## CCOC(=O)c1ccc(/C=C(\C)C=CC23OC2(C)CCCC3(C)C)cc1 (stereo not drawn) [(E)-1-(4-carbethoxy)-2-methyl-4-(1,2-epoxy-2,6,6,-trimethylcyclohex-1-yl)-1,3-butadiene]
Ornithine Decarboxylase [1]
  biological activity in the ornithine decarboxylase (ODC) assay: exhibited biological activity
